{
  "source": "patent US9221839B2",
  "about": "“C5-C6 oxacyclic-fused thiadiazine dioxide compounds as BACE inhibitors, compositions, and their use” (Merck Sharp & Dohme Corp., priority 2011, dated 2015)",
  "key": {"[1]": {"target": "purified human autoBACE-2 (Homo sapiens, UniProt Q9Y5Z0)", "sequence (Q9Y5Z0 63-518 limits assumed)": "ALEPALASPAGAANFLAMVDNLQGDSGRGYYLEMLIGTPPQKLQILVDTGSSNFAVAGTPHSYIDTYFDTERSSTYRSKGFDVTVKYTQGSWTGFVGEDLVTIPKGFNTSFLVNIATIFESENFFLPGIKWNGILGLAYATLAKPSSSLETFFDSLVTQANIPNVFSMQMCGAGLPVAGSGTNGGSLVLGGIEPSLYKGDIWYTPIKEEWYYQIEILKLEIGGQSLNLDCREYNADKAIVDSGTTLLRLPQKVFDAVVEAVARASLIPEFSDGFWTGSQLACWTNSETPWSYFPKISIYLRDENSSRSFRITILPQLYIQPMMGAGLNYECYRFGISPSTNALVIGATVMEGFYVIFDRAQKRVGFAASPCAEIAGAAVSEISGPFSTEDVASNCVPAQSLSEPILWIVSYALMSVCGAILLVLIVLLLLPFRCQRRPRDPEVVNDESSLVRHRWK", "assay": "BACE-2 Assay (BACE-HTRF assay)", "format": "biochemical", "conditions": "Ki calculated from IC50 using the Cheng-Prusoff equation; read-out: BACE2 Ki", "description": "Following laser excitation of sample wells at 320 nm, the fluorescence signal at 620 nm is collected for 400 ms following a 50 μs delay on a RUBYstar HTRF plate reader (BMG Labtechnologies). Raw RFU data is normalized to maximum (1.0 nM BACE/DMSO) and minimum (no enzyme/DMSO)RFU values. […] The Ki values are calculated from the IC50 using the Cheng-Prusoff equation."}, "[2]": {"target": "soluble human BACE1 catalytic domain (Homo sapiens (Human), UniProt P56817)", "sequence (P56817 75-416)": "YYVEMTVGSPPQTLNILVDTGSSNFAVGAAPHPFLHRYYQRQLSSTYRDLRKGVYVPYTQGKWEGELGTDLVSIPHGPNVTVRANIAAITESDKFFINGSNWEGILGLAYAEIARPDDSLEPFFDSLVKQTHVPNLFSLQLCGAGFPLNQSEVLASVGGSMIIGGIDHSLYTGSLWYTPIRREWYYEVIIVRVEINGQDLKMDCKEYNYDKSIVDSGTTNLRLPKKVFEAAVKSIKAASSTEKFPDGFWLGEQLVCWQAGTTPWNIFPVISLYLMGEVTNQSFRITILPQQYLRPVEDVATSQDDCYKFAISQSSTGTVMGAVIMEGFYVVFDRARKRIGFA", "assay": "BACE1 HTRF FRET Assay", "format": "biochemical", "conditions": "Ki calculated from IC50 using the Cheng-Prusoff equation", "from_the_text": "Na^+-Acetate pH 5.0; 1% Brij-35; Glycerol; Dimethyl Sulfoxide (DMSO); Recombinant human soluble BACE1 catalytic domain (>95% pure); APP Swedish mutant peptide substrate (QSY7-APP^swe-Eu): QSY7-[…]-Europium-amide.\nA homogeneous time-resolved FRET assay can be used to determine IC50 values for inhibitors of the soluble human BACE1 catalytic domain. This assay monitors the increase of 620 nm fluorescence that resulted from BACE1 cleavage of an APPswedish APP^swe mutant peptide FRET substrate (QSY7-[…]-Europium-amide). This substrate contains an N-terminal QSY7 moiety that serves as a quencher of the C-terminal Europium fluorophore (620 nm Em). In the absence of enzyme activity, 620 nm fluorescence is low in the assay and increased linearly over 3 hours in the presence of uninhibited BACE1 enzyme Inhibition of BACE1 cleavage of the QSY7-APP^swe-Eu substrate by inhibitors is manifested as a suppression of 620 nm fluorescence.\nReactions are initiated by addition of 10 μl of 600 nM QSY7-APP^swe-Eu substrate (200 nM final) to give a final reaction volume of 30 μl in a 384 well Nunc HTRF plate. The reactions are incubated at 30° C. for 1.5 hours. The 620 nm fluorescence is then read on a Rubystar HTRF plate reader (BMG Labtechnologies) using a […] delay followed by a 400 millisecond acquisition time window. Inhibitor IC50 values are derived from non-linear regression analysis of concentration response curves."}},
  "data": [
    {"smiles": "CN1C(=N)N[C@]2(c3cc(NC(=O)c4ccc(Cl)cn4)ccc3F)COC[C@@H]2S1(=O)=O", "note": "[Example 5a]", "values": [
      {"measurement": "Ki", "setting": "[1]", "value": 55.2, "unit": "nM"},
      {"measurement": "Ki", "setting": "[2]", "value": 197, "unit": "nM"}
    ]},
    {"smiles": "CN1C(=N)N[C@]2(c3cc(NC(=O)c4ccc(C(F)(F)F)cn4)ccc3F)COC[C@@H]2S1(=O)=O", "note": "[Example 6a]", "values": [
      {"measurement": "Ki", "setting": "[1]", "value": 473, "unit": "nM"},
      {"measurement": "Ki", "setting": "[2]", "value": 354, "unit": "nM"}
    ]},
    {"smiles": "COc1ccc(C(=O)Nc2ccc(F)c([C@]34COC[C@H]3S(=O)(=O)N(C)C(=N)N4)c2)nc1", "note": "[Example 3]", "values": [
      {"measurement": "Ki", "setting": "[1]", "value": 8.2, "unit": "nM"},
      {"measurement": "Ki", "setting": "[2]", "value": 18.2, "unit": "nM"}
    ]},
    {"smiles": "CN1C(=N)NC2(c3ccccc3F)COCC2S1(=O)=O", "note": "(centres unmarked) [Example 6f]", "values": [
      {"measurement": "Ki", "setting": "[1]", "value": 4200, "unit": "nM"},
      {"measurement": "Ki", "setting": "[2]", "value": 7850, "unit": "nM"}
    ]},
    {"smiles": "CN1C(=N)N[C@]2(c3cc(NC(=O)c4ccc(F)cn4)ccc3F)COC[C@@H]2S1(=O)=O", "note": "[Example 1a]", "values": [
      {"measurement": "Ki", "setting": "[1]", "value": 491, "unit": "nM"},
      {"measurement": "Ki", "setting": "[2]", "value": 3530, "unit": "nM"}
    ]},
    {"smiles": "COc1cnc(C(=O)Nc2ccc(F)c([C@@]34COC[C@@H]3S(=O)(=O)N(C)C(=N)N4)c2)cn1", "note": "[Example 4a]", "values": [
      {"measurement": "Ki", "setting": "[1]", "value": 1510, "unit": "nM"},
      {"measurement": "Ki", "setting": "[2]", "value": 1330, "unit": "nM"}
    ]},
    {"smiles": "CN1C(=N)N[C@@]2(c3cc(NC(=O)c4ccc(Cl)cn4)ccc3F)COC[C@H]2S1(=O)=O", "note": "[Example 5]", "values": [
      {"measurement": "Ki", "setting": "[1]", "value": 1.3, "unit": "nM"},
      {"measurement": "Ki", "setting": "[2]", "value": 5.07, "unit": "nM"}
    ]},
    {"smiles": "COc1cnc(C(=O)Nc2ccc(F)c([C@]34COC[C@H]3S(=O)(=O)N(C)C(=N)N4)c2)c(F)c1", "note": "[Example 6e]", "values": [
      {"measurement": "Ki", "setting": "[1]", "value": 6.9, "unit": "nM"},
      {"measurement": "Ki", "setting": "[2]", "value": 15.8, "unit": "nM"}
    ]},
    {"smiles": "CN1C(=N)N[C@@]2(c3cc(NC(=O)c4ccc(F)cn4)ccc3F)COC[C@H]2S1(=O)=O", "note": "[Example 1]", "values": [
      {"measurement": "Ki", "setting": "[1]", "value": 1.9, "unit": "nM"},
      {"measurement": "Ki", "setting": "[2]", "value": 13, "unit": "nM"}
    ]},
    {"smiles": "COc1ccc(C(=O)Nc2ccc(F)c([C@@]34COC[C@@H]3S(=O)(=O)N(C)C(=N)N4)c2)nc1", "note": "[Example 3a]", "values": [
      {"measurement": "Ki", "setting": "[1]", "value": 476, "unit": "nM"},
      {"measurement": "Ki", "setting": "[2]", "value": 872, "unit": "nM"}
    ]},
    {"smiles": "CN1C(=N)N[C@@]2(c3cc(NC(=O)c4cnc(C(F)(F)F)cn4)ccc3F)COC[C@H]2S1(=O)=O", "note": "[Example 6d]", "values": [
      {"measurement": "Ki", "setting": "[1]", "value": 55, "unit": "nM"},
      {"measurement": "Ki", "setting": "[2]", "value": 28.4, "unit": "nM"}
    ]},
    {"smiles": "CN1C(=N)N[C@@]2(c3cc(NC(=O)c4ccc(C(F)(F)F)cn4)ccc3F)COC[C@H]2S1(=O)=O", "note": "[Example 6]", "values": [
      {"measurement": "Ki", "setting": "[1]", "value": 19.5, "unit": "nM"},
      {"measurement": "Ki", "setting": "[2]", "value": 9.79, "unit": "nM"}
    ]},
    {"smiles": "COc1cnc(C(=O)Nc2ccc(F)c([C@]34COC[C@H]3S(=O)(=O)N(C)C(=N)N4)c2)cn1", "note": "[Example 4]", "values": [
      {"measurement": "Ki", "setting": "[1]", "value": 48.4, "unit": "nM"},
      {"measurement": "Ki", "setting": "[2]", "value": 54.1, "unit": "nM"}
    ]}
  ]
}
